Assay: log P (HPLC/MS data of the preparation examples)
Details: HCOOH
With “2-[({[(1-methyl-1H-imidazol-5-yl)(phenyl)methylene]amino}oxy)methyl]pyrimidin-4-amine [Example 105]” the “log P(HCOOH)” value was less than 0.23.
With “pentyl{2-[({[(1-methyl-1H-imidazol-5-yl)(phenyl)methylene]amino}oxy)-methyl]pyrimidin-4-yl}carbamate [Example 139]” the “log P(HCOOH)” value was 2.66.

Same assay, conditions: HCOOH (formic acid)
In the case of `Cn1cncc1C(=NOCc1cccc(N2C(=O)c3ccccc3C2=O)n1)c1cccs1` [Example 494, 2-{6-[({[(1-methyl-1H-imidazol-5-yl)(2-thienyl)methylene]amino}-oxy)methyl]pyridin-2-yl}-1H-isoindole-1,3(2H)-dione], the chromatographic logP is reported as 1.66.
In the case of `CON(C)C(=O)c1ccsc1` [N-methoxy-N-methylthiophene-3-carboxamide], the chromatographic logP is reported as 1.3.

Same assay, conditions: HPLC (LC-MS) method [b]: pH 2.7, 0.1% formic acid in water and acetonitrile, linear gradient 10% to 95% acetonitrile; EEC directive 79/831 Annex V.A8
In the case of `CCCCCOC(=O)Nc1ccnc(CON=C(c2ncc(C(F)(F)F)cc2Cl)c2ncnn2C)n1` [Example 475], the log p is reported as 3.8^[b].
With `CCCCCOC(=O)Nc1nc(CON=C(c2ccsc2)c2cncn2C)cs1` (single isomer, unassigned) [Example 462] the log p was 2.23^[b].
With `CCCC(=O)Nc1nc(CON=C(c2cccs2)c2cncn2C)cs1` [Example 451] the log p was 1.47^[b].
With `CC(C)C(=O)Nc1cccc(CON=C(c2ccsc2)c2cncn2C)n1` [Example 439] the log p was 1.5^[b].
For `CC(C)CC(=O)Nc1nc(CON=C(c2ncc(C(F)(F)F)cc2Cl)c2ncnn2C)cs1` [Example 484], the log p was 3.19^[b].
For `Cn1ncnc1C(=NOCc1csc(NC(=O)CCc2ccccc2)n1)c1ncc(C(F)(F)F)cc1Cl` [Example 483], the log p was 3.51^[b].
With `CCCCCC(=O)Nc1cccc(CON=C(c2ncc(C(F)(F)F)cc2Cl)c2ncnn2C)n1` [Example 468] the log p was 3.85^[b].
For `CCCCCC(=O)Nc1nc(CON=C(c2ccsc2)c2cncn2C)cs1` [Example 428], the log p was 1.99^[b].
In the case of `CCCCCOC(=O)Nc1nc(CON=C(c2ncc(C(F)(F)F)cc2Cl)c2ncnn2C)cs1` [Example 480], the log p is reported as 3.94^[b].
In the case of `Cn1ncnc1C(=NOCc1cccc(NC(=O)Cc2ccccc2)n1)c1ncc(C(F)(F)F)cc1Cl` [Example 467], the log p is reported as 3.46^[b].
For `Cn1cncc1C(=NOCc1cccc(N)n1)c1ccsc1` (single isomer, unassigned) [Example 419], the log p was 0.32^[b].
In the case of `Cn1cncc1C(=NOCc1csc(N)n1)c1cccs1` [Example 421], the log p is reported as 0.22^[b].
In the case of `Cn1ncnc1C(=NOCc1cccc(N2C(=O)c3ccccc3C2=O)n1)c1cccs1` [Example 416], the log p is reported as 2.64^[b].
For `Cn1ncnc1C(=NOCc1nccc(NC(=O)CCc2ccccc2)n1)c1ncc(C(F)(F)F)cc1Cl` [Example 477], the log p was 3.39^[b].

Same assay, conditions: LC-MS, method [b]: pH 2.7 with 0.1% formic acid in water and acetonitrile, linear gradient 10% to 95% acetonitrile
In the case of `C#CCCOC(=O)Nc1cccc(CON=C(c2ccccc2)c2ncnn2C)n1` [Example 94], the log p is reported as 2.82^[b].
In the case of `CC(C)CC(=O)Nc1ccnc(CON=C(c2ccccc2)c2nccn2C)n1` [Example 15], the log p is reported as 1.76^[b].
For `Cn1cncc1C(=NOCc1nccc(NC(=O)C(C)(C)C)n1)c1ccccc1` [Example 99], the log p was 1.76^[b].
For `Cn1ccnc1C(=NOCc1cccc(NC(=O)CCC2CCCCC2)n1)c1ccccc1` [Example 282], the log p was 3.67^[b].
For `Cn1ncnc1C(=NOCc1csc(N)n1)c1cccs1` [Example 398], the log p was 0.92^[b].
In the case of `Cn1ncnc1C(=NOCc1cccc(NC(=O)C2CC2c2ccccc2)n1)c1ccccc1` (stereo not drawn) [Example 304], the log p is reported as 3.61^[b].
In the case of `Cc1ccccc1C(=NOCc1cccc(N)n1)c1ncnn1C` [Example 6], the log p is reported as 0.96^[b].
For `Cn1ncnc1C(=NOCc1csc(NC(=O)C(C)(C)C)n1)c1cccs1` [Example 401], the log p was 2.8^[b].
With `COCCOC(=O)Nc1cccc(CON=C(c2cccc(F)c2)c2nccn2C)n1` [Example 341] the log p was 1.66^[b].
With “2-[({[(1-methyl-1H-imidazol-5-yl)(phenyl)methylene]amino}oxy)methyl]pyrimidin-4-amine [Example 105]” the log p was 5.05^[b].
In the case of `Cn1cncc1C(=NOCc1cccc(N)n1)c1ccccc1` (single isomer, unassigned) [Example 97], the log p is reported as 0.25^[b].
In the case of `Cn1ccnc1C(=NOCc1csc(N)n1)c1ccccc1` [Example 133], the log p is reported as 0.75^[b].
With `Cc1cccc(C(=NOCc2cccc(N3C(=O)c4ccccc4C3=O)n2)c2ncnn2C)c1` [Example 5] the log p was 3.04^[b].
In the case of `CC(C)CC(=O)Nc1ccnc(CON=C(c2cccs2)c2nccn2C)n1` [Example 389], the log p is reported as 1.59^[b].
For `CCCCCOC(=O)Nc1ccnc(CON=C(c2ccc(C)cc2)c2ncnn2C)n1` [Example 41], the log p was 3.76^[b].
With `COc1ccc(C(=NOCc2cccc(N3C(=O)c4ccccc4C3=O)n2)c2ncc(C(F)(F)F)cc2Cl)cc1Br` [Example 356] the log p was 4.78^[b].
With `CCCCCCC(=O)Nc1cccc(CON=C(c2ccc(OC)c(Br)c2)c2ncc(C(F)(F)F)cc2Cl)n1` [Example 369] the log p was 5.82^[b].
For `Cn1ccnc1C(=NOCc1cccc(NC(=O)CCC2CCCCC2)n1)c1cccc(F)c1` [Example 285], the log p was 3.92^[b].
For `CSCCC(=O)Nc1cccc(CON=C(c2cccc(F)c2)c2nccn2C)n1` [Example 287], the log p was 2.07^[b].
For `Cc1ccccc1C(=NOCc1cccc(NC(=O)C2CC2)n1)c1ncnn1C` [Example 23], the log p was 2.48^[b].
In the case of `CC(C)COC(=O)Nc1cccc(CON=C(c2cccc(F)c2)c2nccn2C)n1` [Example 345], the log p is reported as 2.51^[b].
In the case of `Cn1ccnc1C(=NOCc1cccc(NC(=O)CCc2ccc(Cl)s2)n1)c1cccc(F)c1` [Example 335], the log p is reported as 2.77^[b].
In the case of `COc1ccc(C(=NOCc2cccc(NC(=O)C(F)(F)F)n2)c2ncc(C(F)(F)F)cc2Cl)cc1Br` [Example 361], the log p is reported as 4.97^[b].
With `C=CCC(=O)Nc1cccc(CON=C(c2ccccc2)c2ncnn2C)n1` [Example 314] the log p was 2.51^[b].
In the case of `CC(C)CCOC(=O)Nc1cccc(CON=C(c2cccc(F)c2)c2nccn2C)n1` [Example 346], the log p is reported as 2.82^[b].
For `CC(C)CC(=O)Nc1nc(CON=C(c2ccccc2)c2cnnn2C)cs1` [Example 86], the log p was 3^[b].
With `Cn1ccnc1C(=NOCc1nccc(NC(=O)CCc2ccccc2)n1)c1ccccc1` [Example 64] the log p was 2.21^[b].
For `Cn1cncc1C(=NOCc1nccc(NC(=O)COc2ccccc2)n1)c1ccccc1` [Example 132], the log p was 1.86^[b].
With `COCCOCC(=O)Nc1cccc(CON=C(c2ccc(OC)c(Br)c2)c2ncc(C(F)(F)F)cc2Cl)n1` [Example 362] the log p was 4.51^[b].
For `Cn1ncnc1C(=NOCc1cccc(NC(=O)CCc2cc(Cl)cc(Cl)c2)n1)c1ccccc1` [Example 296], the log p was 4.29^[b].
With `C#CCOC(=O)Nc1cccc(CON=C(c2ccccc2)c2nccn2C)n1` [Example 330] the log p was 1.66^[b].
With `CCCCCC(=O)Nc1cccc(CON=C(c2cccc(C)c2)c2ncnn2C)n1` [Example 21] the log p was 3.71^[b].
In the case of `CCCCC(=O)NCc1cccc(CON=C(c2ccccc2)c2ncnn2C)n1` [Example 135], the log p is reported as 2.28^[b].
In the case of `Cc1ccc(C(=NOCc2nccc(NC(=O)C3CC3)n2)c2ncnn2C)cc1` [Example 40], the log p is reported as 2.46^[b].

Same assay, conditions: method [b]: LC-MS at pH 2.7, 0.1% formic acid in water / acetonitrile, linear gradient 10% to 95% acetonitrile
In the case of `COc1cccc(CC(=O)Nc2cccc(CON=C(c3cccc(F)c3)c3nccn3C)n2)c1` [Example 274], the log p is reported as 2.58^[b].
In the case of `CCCCCOC(=O)Nc1cccc(CON=C(c2ccccc2)c2cnc(C)n2C)n1` [Example 211], the log p is reported as 3.13^[b].
For `Cn1ccnc1C(=NOCc1cccc(N)n1)c1cccc(F)c1` [Example 233], the log p was 0.54^[b].
With `Cn1nc(C(=NOCc2cccc(N3C(=O)c4ccccc4C3=O)n2)c2ccccc2)n(C)c1=O` [Example 142] the log p was 2.66^[b].
With `CCCCCOC(=O)Nc1cccc(CON=C(c2ccccc2)c2nncn2C)n1` [Example 157] the log p was 3.29^[b].
In the case of `CCCCOC(=O)NCc1cccc(CON=C(c2ccccc2)c2ncnn2C)n1` [Example 141], the log p is reported as 2.84^[b].
With `Cc1ncc(C(=NOCc2cccc(N)n2)c2ccccc2)n1C` [Example 209] the log p was 0.56^[b].
With “pentyl{2-[({[(1-methyl-1H-imidazol-5-yl)(phenyl)methylene]amino}oxy)-methyl]pyrimidin-4-yl}carbamate [Example 139]” the log p was 3.19^[b].
In the case of `COCCC(=O)Nc1cccc(CON=C(c2ccccc2)c2ncnn2C)n1` [Example 237], the log p is reported as 2.17^[b].
For `Cc1cc(C(F)(F)F)nn1CC(=O)Nc1cccc(CON=C(c2ccccc2)c2nc(C(F)(F)F)nn2C)n1` [Example 186], the log p was 4.31^[b].
In the case of `Cn1c(C(=NOCc2cccc(NC(=O)CCc3ccccc3)n2)c2ccccc2)nnc1C(F)(F)F` [Example 201], the log p is reported as 3.85^[b].
For `CC(C)CC(=O)Nc1cccc(CON=C(c2ccccc2)c2nc(C(F)(F)F)nn2C)n1` [Example 177], the log p was 4.24^[b].
For `Cc1nnsc1C(=NOCc1cccc(N2C(=O)c3ccccc3C2=O)n1)c1ccccc1` [Example 214], the log p was 3.69^[b].
With `Cc1nnsc1C(=NOCc1cccc(NC(=O)CCc2ccccc2)n1)c1ccccc1` [Example 220] the log p was 4.31^[b].
With `Cc1nc(C(=NOCc2cccc(N)n2)c2ccccc2)cs1` (single isomer, unassigned) [Example 169] the log p was 1.7^[b].
With `CC(C)COC(=O)Nc1cccc(CON=C(c2ccccc2)c2nnc(C(F)(F)F)n2C)n1` [Example 203] the log p was 4.06^[b].
In the case of `Cc1nnsc1C(=NOCc1cccc(NC(=O)CCC2CCCC2)n1)c1ccccc1` [Example 221], the log p is reported as 5^[b].
For `Cn1cncc1C(=NOCc1cccc(NC(=O)COc2ccccc2)n1)c1ccccc1` [Example 255], the log p was 2.04^[b].
In the case of `COc1ccc(CC(=O)Nc2cccc(CON=C(c3ccccc3)c3ncnn3C)n2)cc1` [Example 246], the log p is reported as 3.02^[b].
In the case of `Cc1nnsc1C(=NOCc1cccc(NC(=O)OCC(C)C)n1)c1ccccc1` [Example 222], the log p is reported as 4.65^[b].
With `Cn1ccnc1C(=NOCc1nccc(NC(=O)C2CC2)n1)c1ccccc1` [Example 154] the log p was 1.5^[b].
With `Cn1ccnc1C(=NOCc1nccc(NC(=O)Cc2ccccc2)n1)c1ccccc1` [Example 155] the log p was 2.01^[b].

Same assay, conditions: reversed phase HPLC column, pH 2.7
`Cn1cnnc1C(=NOCc1cccc(C#CC2CC2)n1)c1ccccc1` [Example 229, N-{[6-(cyclopropylethynyl)pyridin-2-yl]methoxy}-1-(4-methyl-4H-1,2,4-triazol-3-yl)-1-phenylmethanimine] gave a chromatographic logP of 2.56.

Source: patent US8981111B2 (priority 2008, dated 2015)
